Values quoted from earlier work as cited in US20070249572A1, “Systems and methods for the delivery of corticosteroids” (Verus Pharmaceuticals, Inc., priority 2005, published 2007).

With `CCCC1O[C@@H]2C[C@H]3[C@@H]4CCC5=CC(=O)C=C[C@]5(C)[C@H]4[C@@H](O)C[C@]3(C)[C@]2(C(=O)CO)O1` (stereo partly drawn) [budesonide, (R,S)-llβ,16α,17,21-tetrahydroxypregna-1,4-diene-3,20-dione cyclic 16,17-acetal with butyraldehyde] as the molecule, how does the solubility in alcohols (alcohols) read?
The solubility in alcohols was “readily soluble in alcohols”.

What about the solubility in water (water) of the same molecule?
Its solubility in water is “virtually insoluble in water”.
